In PubChem BioAssay (NCI):
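Where inhibition never reached the appropriate level, the endpoint shown equals the highest concentration tested. Otherwise, values were interpolated linearly from a five-concentration, 48-hour dose response in 96-well plates. Here, GI50 denotes the concentration required for 50% inhibition of growth. TGI marks complete inhibition of growth.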

Experiments:
Assay in all cases: NCI tumour cell line growth inhibition, 48 h
SF-295 CNS = test system: SF-295 CNS
OVCAR-8 ovarian = test system: OVCAR-8 ovarian
NCI-H23 lung = test system: NCI-H23 lung
M14 melanoma = test system: M14 melanoma
SF-539 CNS = test system: SF-539 CNS
LOX IMVI melanoma = test system: LOX IMVI melanoma
HL-60(TB) leukemia = test system: HL-60(TB) leukemia
KM12 colon = test system: KM12 colon
HT29 colon = test system: HT29 colon
CCRF-CEM leukemia = test system: CCRF-CEM leukemia

Structure (SMILES) | TGI (SF-295 CNS) [µM] | TGI (OVCAR-8 ovarian) [µM] | TGI (NCI-H23 lung) [µM] | TGI (M14 melanoma) [µM] | TGI (SF-539 CNS) [µM] | TGI (LOX IMVI melanoma) [µM] | TGI (HL-60(TB) leukemia) [µM] | TGI (KM12 colon) [µM] | TGI (HT29 colon) [µM] | TGI (CCRF-CEM leukemia) [µM] | GI50 (SF-295 CNS) [µM] | GI50 (OVCAR-8 ovarian) [µM] | GI50 (NCI-H23 lung) [µM] | GI50 (M14 melanoma) [µM] | GI50 (SF-539 CNS) [µM] | GI50 (LOX IMVI melanoma) [µM] | GI50 (HL-60(TB) leukemia) [µM] | GI50 (KM12 colon) [µM] | GI50 (HT29 colon) [µM] | GI50 (CCRF-CEM leukemia) [µM]
C/C(=N\N=C(N)N)C(CN1CCOCC1)C(c1ccccc1)c1c(O)c2ccccc2oc1=O (stereo not given) | > 100 | > 100 | > 100 | > 100 | > 100 | > 100 | > 100 | > 100 | > 100 | > 100 | – | – | – | – | – | – | – | – | – | –
COc1cccc(N2CC(O)=C(c3nc4ccccc4s3)C2=N)c1 | 6.09 | 65.9 | > 25.2 | 48.8 | 26.6 | > 100 | > 100 | > 100 | > 39.3 | > 100 | 0.0744 | 0.838 | 0.652 | 0.35 | 0.451 | 0.459 | 0.26 | 0.234 | 0.252 | 0.243
CC1C(c2ccccc2)N(C)C(c2ccccc2)C(C)C1(O)c1ccccc1 (stereo not given) | > 100 | > 100 | > 100 | > 100 | > 100 | > 100 | > 100 | > 100 | > 100 | > 100 | – | – | – | – | – | – | – | – | – | –
Nc1ccc(C#Cc2ccccc2C#CCCCCO)cc1 | 41.1 | 33.5 | 35.1 | 28.1 | 33.9 | 29.7 | 44 | 33.4 | 26.1 | 28.1 | 22.3 | 17 | 18.2 | 14.1 | 17.6 | 16.2 | 23.4 | 15.9 | 13.3 | 13.2
Oc1c(C(c2ccc(F)cc2)N2CCCCC2)ccc2cncnc12 (stereo not given) | > 100 | > 100 | > 100 | > 75.2 | > 81.2 | > 100 | 6.22 | > 100 | > 100 | > 100 | 0.413 | 0.453 | 0.414 | 0.746 | 0.388 | 0.432 | 1.14 | 1.07 | 0.747 | 0.477
Cc1cc(N(CCC#N)S(=O)(=O)c2ccccc2)ccc1C=Nc1ccc(C(=O)O)cc1 | 44.8 | 15.5 | 33.9 | 21.8 | 30.7 | 25.5 | > 21.3 | 42.6 | 45.6 | > 26.5 | – | – | – | – | – | – | – | – | – | –
COc1cc(/C=C2\[C@@H]3NC(Cc4c(OC)c(C)c(OC)c(OC)c43)C(=O)N2Cc2ccccc2)c(OC)c(C)c1OC | > 100 | > 100 | > 100 | > 100 | > 100 | > 100 | 62.8 | > 100 | 68.1 | > 100 | – | – | – | – | – | – | – | – | – | –
N#C/C(=C\c1ccc[nH]1)c1cc(-c2ccc(Cl)cc2)nn1-c1ccccc1 | 13 | > 100 | 22.1 | 14.8 | 18.9 | 16.8 | 29.3 | 11.6 | 13 | 22 | 2.8 | 11.5 | 4.19 | 4.09 | 6.05 | 4.9 | 4.36 | 2.68 | 3.31 | 3.59
CCCCCCCCCC1CC(=O)OC2=C1C(=O)CCC2 (stereo not given) | > 100 | > 100 | > 100 | > 100 | > 100 | > 100 | > 100 | > 100 | > 100 | > 100 | – | – | – | – | – | – | – | – | – | –
COc1ccc(C(=O)/C=C/c2ccc(OCc3cccc(C(F)(F)F)c3)c(OC)c2)cc1OC | > 1000 | > 1000 | > 1000 | > 1000 | > 1000 | > 1000 | 70.9 | > 1000 | > 1000 | > 1000 | 70.3 | 48.8 | 46.7 | 70.9 | 65.3 | 32.8 | 24.8 | 55.3 | 52.1 | 38.8
C=C1C(=O)O[C@@H]2/C=C(/C)[C@@H](OC(C)=O)C[C@@H](O)/C(C)=C\[C@@H](OC(=O)[C@]3(C)O[C@@H]3C)[C@@H]12 | > 100 | 27.4 | 35.6 | 25 | 46.5 | 20.4 | 7.85 | 36.3 | 30.7 | 11.7 | – | – | – | – | – | – | – | – | – | –
COC(=O)C1=C(C)NC(=S)NC1c1ccc(N(CCCl)CCCl)cc1Cl (stereo not given) | > 82.4 | > 100 | > 62.1 | > 87.9 | > 100 | > 100 | > 100 | > 73.4 | > 82.8 | > 32.7 | – | – | – | – | – | – | – | – | – | –
OC(c1cc(C(F)(F)F)nc2c(Cl)cc(Cl)cc12)C1CCCCN1 (stereo not given) | 25.4 | 32.5 | 23.8 | > 44 | 29.9 | 14.8 | 17.7 | 19.3 | > 38.9 | 4.08 | – | – | – | – | – | – | – | – | – | –
CC(C)(C)NCC(O)c1ccccc1Cl (stereo not given) | > 100 | > 100 | > 100 | > 100 | > 100 | > 100 | > 100 | > 100 | > 100 | > 100 | > 100 | > 100 | > 100 | > 100 | > 100 | > 100 | > 100 | > 100 | > 100 | > 100
CCCCCCCCN(CCCCCCCC)CC(O)c1cc(-c2ccccc2)nc2ccc(OC)cc12 (stereo not given) | > 100 | > 100 | > 100 | 68.5 | 64.8 | 34.7 | 52.2 | > 100 | > 100 | > 100 | > 100 | 32.2 | 43.4 | 20.3 | 22.3 | 12.6 | 18 | 79.9 | 18.3 | 26.1
CC1(C)OCC2OC(n3cnc4c(N)nc(Cl)nc43)C(OS(C)(=O)=O)C2O1 (stereo not given) | > 100 | > 100 | > 100 | > 100 | > 100 | > 100 | > 100 | > 100 | > 100 | > 100 | – | – | – | – | – | – | – | – | – | –
COc1nn(C)cc1Nc1nccc(-c2c[nH]c3c(NC(=O)[C@@H](C)N4CCN(C)CC4)cccc23)n1 | 99.4 | > 100 | > 100 | 41.2 | 38.4 | 36.5 | > 100 | > 100 | > 100 | > 100 | 28 | > 100 | 40.5 | 18.9 | 18 | 17.1 | 28.9 | 37.6 | 29.4 | 40.4
CC1(c2ccc(F)cc2)C2C(=O)NC(=O)C1C(=O)NC2=O (stereo not given) | > 100 | > 100 | > 100 | > 100 | > 100 | > 100 | > 100 | > 100 | > 100 | > 100 | – | – | – | – | – | – | – | – | – | –
Clc1cnc(Nc2ccc(OCCN3CCCC3)cc2)nc1NCc1ccco1 | 6.63 | 13.7 | 5.75 | 9.55 | 3.64 | 4.26 | 5.01 | 10.1 | 9.18 | 9.5 | 2.18 | 3.54 | 1.84 | 2.46 | 1.67 | 1.16 | 1.03 | 0.643 | 2.19 | 2.54
Cn1nc(C(F)(F)F)cc1-c1cc(Cl)c(OCc2ccc(Cl)cc2)c(-c2ccc(Cl)c(C(F)(F)F)c2)c1O | 2.55 | 5.41 | 3.86 | 2.93 | 3.26 | 3.12 | 2.49 | 5.07 | 5.92 | 19.6 | 0.997 | 1.2 | 0.965 | 1.16 | 1.07 | 1.16 | 1.12 | 1.38 | 1.4 | 0.821
